Bounds are passed on as bounds.

Type in all cases: cell-based
Data set [1] addresses T1, hLPAR1 (human lysophosphatidic acid receptor 1) (Homo sapiens, UniProt Q92633).
T1 construct: expressed in transfected cells
Nature of the data set: FLIPR intracellular calcium assay, hLPAR1 expressed in CHO-K1 cells. Conditions: antagonism of 1 μM LPA-induced calcium increase, CHO-K1 cells expressing hLPAR1; read-out: LPAR1 IC50. The procedure:
The antagonist property of the compounds disclosed herein was determined using the FLIPR (fluorescence imaging plate reader) method, wherein the compounds are inhibitors for the intracellular calcium increase induced by activation of hLPAR1 (human lysophosphatidic acid receptor 1, accession No. NM_001401.4) expressed in CHO-K1 cells (Chinese hamster ovary cells K1, ATCC).
CHO-K1 cells stably expressing hLPAR1 were cultured in F-12 medium containing 10% FBS (fetal bovine serum, Gibco, 10099-141), 1% penicillin-streptomycin (Gibco, 15140-122) and 0.4 mg/mL hygromycin B (Gibco, 10687010) in a cell incubator (37° C., […]). During 18-24 h prior to the FLIPR experiment, cells at 250,000 cells/mL were seeded into a 96-well plate (25,000 cells/well) and incubated overnight in the cell incubator. On the day of the experiment, the medium was discarded and the cells were washed in a FLIPR buffer (0.3 mL of probenecid (Thermo, P36400), 0.6 mL of 1 M HEPES (Invitrogen, 15630080) and 29.1 mL of HBSS (Invitrogen, 14065056) per 30 mL of buffer). Each well was added with 75 μL of 1 mM Fluo-4 AM fluorescent dye (Thermo, F14202) and then the cells were subjected to dye-loading incubation at 37° C. for 1.0 h. The 96-well plate was then washed once with buffer, added with a buffer containing a test compound or vehicle at 50 μL per well and then incubated for 30 min at room temperature. The cell plate was then placed in the FLIPR for baseline fluorescence measurements (excitation at 485 nm and emission at 525-535 nm). An agonist (oleoyl-L-α-lysophosphatidic acid sodium salt (Sigma, L7260) at a final concentration of 1 μM) or a vehicle (ultrapure water) was then added at 50 μL/well, fluorescence values were measured for 2 min at 1-second intervals, and finally the output fluorescence counts were analyzed.

Data set [2] is described as follows: In vitro cytotoxicity assay in HepG2 cells, CCK-8 method. Conditions: human, 48 h incubation. The procedure:
In vitro cytotoxicity assay for the compounds disclosed herein was performed in HepG2 cells using the CCK-8 method. HepG2 cells (Beina Bio) in the logarithmic growth phase were collected, the concentration of cell suspension was adjusted, and then the cells were plated on a 96-well cell culture plate at 50,000 cells/well. • The cells were then incubated overnight in a cell incubator (5% CO2, 37° C.), and after 80-90% cell confluence was achieved, test compounds or vehicle (DMSO) at various concentration gradients were added after medium change. The resulting mixture was incubated in the cell incubator (5% CO2, 37° C.) for 48 h. After the treatment, the medium in the plate was discarded. The plate was washed twice with PBS, added with CCK-8 working solution (Beyotime) at 100 μL per well, and then incubated at 37° C. for 1.5 h in the dark. Absorbance at OD450nm was measured for each well on a microplate reader, and CC50 value of each compound was analyzed and calculated.
On the technique in general: Formazan colour is commonly taken as a measure of viable cells.

For data set [3], the system named is A2058 (human melanoma cells). Briefly: A2058 cell scratch assay (cell migration inhibition). Conditions: A2058 scratch area 0 h vs 24 h, 10 μM LPA, read-out: Cell migration inhibition rate. The protocol: The activity of the compounds disclosed herein at the cell level in vitro is evaluated by A2058 (human melanoma cells, Beina Bio, BNCC341099) cell scratch assay. The inhibitory activity of the compounds against LPAR1 can be reflected by inhibition of cell scratch healing.
A2058 cells in a T75 cm^2 cell culture flask were digested and gently pipetted into single cells, adjusted to a cell density of 4×10^5 cells/mL, and then seeded into a 24-well plate. After the cell confluence reached 80%, the cell culture plate was taken out and the original medium was discarded. Serum-free medium was then added, and the cells were starved overnight in an incubator (37° C., 5% CO2). The cell culture plate was then taken out, and cell scratches were made along the diameter of the wells using a 200 μL pipette tip. The cell culture plate was then added with 500 μL of serum-free medium and then shaken gently to wash away the residual cells on the scratched surface, and this was repeated twice. The medium was discarded and 500 μL of 1% FBS medium containing the compound was then added, and the mixture was incubated at 37° C. for 30 min. […] Olympus CKX53 was used to observe the scratches, and MShot image analysis system was used to take pictures and measure the scratch area at 0 h. Then the cell culture plate was incubated in the incubator (37° C., 5% CO2). 24 h later, the scratches were observed again with Olympus CKX53, and MShot image analysis system was used to take pictures and measure the scratch area at 24 h. Cell migration inhibition rate was calculated according to the following formula: […]

T1 sequence (Q92633 whole entry): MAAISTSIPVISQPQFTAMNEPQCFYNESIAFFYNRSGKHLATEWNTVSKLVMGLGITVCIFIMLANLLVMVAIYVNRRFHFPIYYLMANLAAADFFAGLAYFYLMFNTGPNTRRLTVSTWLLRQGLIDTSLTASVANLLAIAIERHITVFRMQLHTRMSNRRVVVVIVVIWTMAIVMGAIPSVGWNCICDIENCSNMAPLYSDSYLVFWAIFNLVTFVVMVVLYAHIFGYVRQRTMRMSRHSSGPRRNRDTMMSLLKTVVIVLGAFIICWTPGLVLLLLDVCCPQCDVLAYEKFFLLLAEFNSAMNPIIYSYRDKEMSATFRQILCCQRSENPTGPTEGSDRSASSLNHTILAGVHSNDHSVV

For the compound `CN(Cc1ccccc1)C(=O)OCc1c(C2CC2O[C@H]2CCC[C@H](C(=O)O)C2)nnn1C` (mixture of isomers) [Compound 32], the half-maximal inhibitory concentration (IC50) (usually the point on the concentration scale where inhibition reaches its midpoint) in data set [1] is 300 to 10000 nM.

Take `CN(Cc1ccccc1)C(=O)NCc1c(-c2ccc(O[C@H]3CCC[C@H](C(=O)O)C3)cc2)nnn1C` (racemic) [Compound 1]: the half-maximal cytotoxic concentration (CC50) – broadly, the concentration at which the toxic effect on the cells reaches its halfway point – at 48 h in data set [2] is over 200000 nM. In data set [3], the inhibition is 30 to 50%. Also, the 50% inhibitory concentration (IC50) in data set [1] was in the range of 50 to 300 nM.

In turn, `Cn1nnc(-c2ccc(O[C@H]3CCC[C@H](C(=O)O)C3)cc2)c1CNC(=O)/C=C/c1ccccc1` (racemic) [Compound 5] gave a CC50 at 48 h in data set [2] of over 200000 nM. Also, the inhibition in data set [3] lay in the range of 0 to 30%. In addition, in data set [1], the IC50 lay in the range of 300 to 10000 nM.

`CN(Cc1ccccc1)C(=O)OCc1cn(-c2ccc(O[C@H]3CCC[C@H](C(=O)O)C3)cc2)nn1` (racemic) [Compound 6, (+/−)-(1S,3S)-3-(4-(4-(((benzyl(methyl)carbamoyl)oxo)methyl)-1H-1,2,3-triazol-1-yl)phenoxy)cyclohexane-1-carboxylic acid]: the 50% cytotoxic concentration (CC50) at 48 h in data set [2] is over 200000 nM. In addition, the inhibition in data set [3] was 30 to 50%. The IC50 in data set [1] is 50 to 300 nM.

In data set [2], `CN(Cc1ccccc1)C(=O)OCc1c(-c2ccc(O[C@H]3CCC[C@H](C(=O)O)C3)o2)nnn1C` (racemic) [Compound 12] came in with a 50% cytotoxic concentration (CC50) at 48 h of over 200000 nM. The inhibition in data set [3] fell in the range of 0 to 30%. In addition, the concentration for half-maximal inhibition (IC50) in data set [1] lay in the range of 300 to 10000 nM.

In the case of `Cc1ncc(-c2c(-c3ccc(O[C@H]4CCC[C@H](C(=O)O)C4)cc3)nnn2C)o1` (racemic) [Compound 15, (+/−)-(1S,3S)-3-(4-(1-methyl-5-(2-methyloxazol-5-yl)-1H-1,2,3-triazol-4-yl)phenoxy) cyclohexane-1-carboxylic acid], in data set [2], the cytotoxic concentration (CC50) at 48 h was over 200000 nM. Also, in data set [3], the inhibition is 30 to 50%. For the same compound, the 50% inhibitory concentration (IC50) in data set [1] is 300 to 10000 nM.

With `Cn1nnc(-c2ccc(O[C@H]3CCC[C@H](C(=O)O)C3)cc2)c1Cn1ccn(Cc2ccccc2)c1=O` (racemic) [Compound 16, (+/−)-(1S,3S)-3-(4-(5-((3-benzyl-2-carbonyl-2,3-dihydro-1H-imidazol-1-yl)methyl)-1-methyl-1H-1,2,3-triazol-4-yl)phenoxy)cyclohexane-1-carboxylic acid], the CC50 at 48 h in data set [2] is over 200000 nM. For the same compound, the inhibition in data set [3] was 30 to 50%. The IC50 in data set [1] is 300 to 10000 nM.

For `Cn1nnc(-c2ccc(O[C@H]3CCC[C@H](C(=O)O)C3)cc2)c1CN1CCN(Cc2ccccc2)C1=O` (racemic) [Compound 17, (+/−)-(1S,3S)-3-(4-(5-((3-benzyl-2-carbonylimidazolidin-1-yl)methyl)-1-methyl-1H-1,2,3-triazol-4-yl)phenoxy)cyclohexane-1-carboxylic acid], the half-maximal cytotoxic concentration (CC50) at 48 h in data set [2] is over 200000 nM. Besides, the inhibition in data set [3] fell in the range of 0 to 30%. The 50% inhibitory concentration (IC50) in data set [1] fell in the range of 50 to 300 nM.

In data set [2], `Cn1nnc(-c2ccc(O[C@H]3CCC[C@H](C(=O)O)C3)cc2)c1CNS(=O)(=O)c1ccccc1` (racemic) [Compound 18, (+/−)-(1S,3S)-3-(4-(1-methyl-5-(benzenesulfonamidomethyl)-1H-1,2,3-triazol-4-yl)phenoxy)cyclohexane-1-carboxylic acid] displayed a CC50 at 48 h of over 200000 nM. Further, in data set [3], the inhibition was in the range of 30 to 50%. Also, the IC50 in data set [1] was in the range of 50 to 300 nM.

In data set [2], `CN(C(=O)Cc1c(-c2ccc(O[C@H]3CCC[C@H](C(=O)O)C3)cc2)nnn1C)C1CCCC1` (racemic) [Compound 19] registered a CC50 at 48 h of over 200000 nM. Further, the inhibition in data set [3] was in the range of 0 to 30%. For the same compound, in data set [1], the IC50 is 50 to 300 nM.

Take `Cn1nnc(-c2ccc(O[C@H]3CCC[C@H](C(=O)O)C3)cc2)c1CNC(=O)C1CCCC1` (racemic) [Compound 20, (+/−)-(1S,3S)-3-(4-(5-(cyclopentanecarboxamido<oxalylamino>methyl)-1-methyl-1H-1,2,3-triazol-4-yl)phenoxy)cyclohexane-1-carboxylate]: the CC50 at 48 h in data set [2] was over 200000 nM. In data set [3], the inhibition was 30 to 50%. Besides, in data set [1], the 50% inhibitory concentration (IC50) was 50 to 300 nM.

As to `Cn1nnc(-c2ccc(O[C@H]3CCC[C@H](C(=O)O)C3)cc2)c1COC1CCCC1` (racemic) [Compound 21, (+/−)-(1S,3S)-3-(4-(5-((cyclopentyloxy)methyl)-1-methyl-1H-1,2,3-triazol-4-yl)phenoxy)cyclohexane-1-carboxylic acid], the half-maximal cytotoxic concentration (CC50) at 48 h in data set [2] is over 200000 nM. In addition, the inhibition in data set [3] is 30 to 50%. The IC50 in data set [1] lay in the range of 50 to 300 nM.

`CC(C)OCc1c(-c2ccc(O[C@H]3CCC[C@H](C(=O)O)C3)cc2)nnn1C` (racemic) [Compound 22, (+/−)-(1S,3S)-3-(4-(5-(isopropoxymethyl)-1-methyl-1H-1,2,3-triazol-4-yl)phenoxy)cyclohexane-1-carboxylic acid]: in data set [2], the CC50 at 48 h was over 200000 nM. For the same compound, the inhibition in data set [3] lay within 30 to 50%. In addition, the IC50 in data set [1] is 50 to 300 nM.

In the case of `Cn1nnc(-c2ccc(O[C@H]3CCC[C@H](C(=O)O)C3)cc2)c1COCc1ccccc1` (racemic) [Compound 23, (+/−)-(1S,3S)-3-(4-(5-((benzyloxy)methyl)-1-methyl-1H-1,2,3-triazol-4-yl)phenoxy)cyclohexane-1-carboxylic acid], the cytotoxic concentration (CC50) at 48 h in data set [2] is over 200000 nM. Besides, in data set [3], the inhibition lay in the range of 30 to 50%. Besides, in data set [1], the IC50 was 50 to 300 nM.

Regarding `Cn1nnc(-c2ccc(O[C@H]3CCC[C@H](C(=O)O)C3)cc2)c1NCc1ccccc1` (racemic) [Compound 24, (+/−)-(1S,3S)-3-(4-(5-(benzylamino)-1-methyl-1H-1,2,3-triazol-4-yl)phenoxy) cyclohexane-1-carboxylate], the CC50 at 48 h in data set [2] was over 200000 nM. The inhibition in data set [3] lay in the range of 0 to 30%. In addition, in data set [1], the 50% inhibitory concentration (IC50) was in the range of 300 to 10000 nM.

As to `Cn1nnc(-c2ccc(O[C@H]3CCC[C@H](C(=O)O)C3)cc2)c1CS(=O)(=O)NC1CCCC1` (racemic) [Compound 33], the IC50 in data set [1] lay within 300 to 10000 nM.

For `Cc1nnn(-c2ccc(O[C@H]3CCC[C@H](C(=O)O)C3)cc2)c1N(C)C(=O)OC1CCCC1` (racemic) [Compound 34], the half-inhibitory concentration (IC50) in data set [1] fell in the range of 300 to 10000 nM.

With `Cn1nnc(-c2ccc(O[C@H]3CCC[C@H](C(=O)O)C3)cc2)c1NCC1CCCC1` (racemic) [Compound 36], the half-inhibitory concentration (IC50) in data set [1] lay in the range of 300 to 10000 nM.

As to `Cn1nnc(-c2ccc(O[C@H]3CCC[C@H](C(=O)O)C3)cc2)c1NC(=O)Cc1ccccc1` (racemic) [Compound 37], the IC50 in data set [1] was in the range of 300 to 10000 nM.

Regarding `Cn1nnc(-c2ccc(O[C@H]3CCC[C@H](C(=O)O)C3)cc2)c1CNc1ncc(C2CCCC2)o1` (racemic) [Compound 38], the IC50 in data set [1] lay within 300 to 10000 nM.

Turning to `Cn1nnc(C#CO[C@H]2CCC[C@H](C(=O)O)C2)c1COc1nccc(C2CC2)n1` (racemic) [Compound 39], in data set [1], the IC50 was at most 50 nM.

For the compound `CN(C(=O)OCc1c(-c2ccc(O[C@H]3CCC[C@H](C(=O)O)C3)cc2)nnn1C1CC1)C1CCCC1` [Compound 35], the IC50 in data set [1] lay within 300 to 10000 nM.

The values are drawn from US12378204B2, “Triazole compounds and preparation method therefor and use thereof” (WUHAN LL SCIENCE AND TECHNOLOGY DEVELOPMENT CO., LTD., priority 2019, dated 2025).
